Data reported in patent US20160264593A1 (priority 2013, published 2016).
Where two headings read alike, the source gives them in different places.

Assay: Pharmacokinetic study of 153 (and metabolite endothal) in SD rats, iv and po; plasma, liver, brain
Assay type: in vivo
Conditions: for 153 plasma concentration (title) / Liver concentration: PO per title; for MRT last: read-out: MRT (0-t)
Procedure: The blood, liver and brain tissue samples were collected at predetermined times from rats. […] Compound were diluted shortly before use in 4% sodium bicarbonate for sterile injection (this is the standard pediatric solution of NaHCO3 with a pH of about 8.5).
Compound 153 was freshly prepared by diluting the drugs shortly before use in 4% sodium bicarbonate for sterile injection (this is the standard pediatric solution of NaHCO3 with a pH of about 8.5). The final concentrations of 153 solutions were 0.25 mg/mL. The 153 solutions were administered via iv or po route at dose volume of 5 ml/kg according to the latest body weight. Compound 157 was freshly prepared by diluting the drugs shortly before use in 4% sodium bicarbonate for sterile injection (this is the standard pediatric solution of NaHCO3 with a pH of about 8.5). The final concentrations of […] solutions were 0.3 mg/mL. The 157 solutions were administered via iv or po route at dose volume of 5 ml/kg according to the latest body weight.
Twelve (12) female SD rats per group were dosed by iv with 153 or 157. The rats were fasted overnight prior to dosing, with free access to water. Foods were withheld for 2 hours post-dose. Blood, liver and brain tissue samples in two animals each group were collected at each time point, within 10% of the scheduled time for each time point. Two extra animals were used for analytic method development.
Blood (>0.3 mL) were collected via aorta abdominalis in anaesthetic animals into tubes containing heparin at 15 min, 1, 2, 6, 10 and 24 hours after iv administration. Liver and brain tissues were collected immediately after animal death. The liver and brain tissues were excised and rinsed with cold saline to avoid blood residual. Upon collection, each sample was placed on ice and the blood samples were subsequently centrifuged (4° C., 11000 rpm, 5 min) to separate plasma. The obtained plasma, liver and brain tissue samples were stored at −70° C. until LC-MS/MS analysis.
Two (2) female SD rats per group were dosed by po with 153 or 157. The rats were fasted overnight prior to dosing, with free access to water. Foods were withheld for 2 hours post-dose. Blood samples (>0.3 mL) were collected via aorta abdominalis in anaesthetic animals into tubes containing heparin at 30 min, 1, 2, 6, 10 and 24 hours after po administration.
To each sample, 20 μL IS-D (for blank samples, 20 μL acetonitrile:water (1:1) was added) and 300 μl acetonitrile was added. The sample mixture was vortexed for approximately 3 min. After centrifugation at 10000 rpm for 5 min at 4° C., 100 μL of the upper layer was transferred to a new tube and added 200 μL 0.4% formic acid in water (pH 6.0). The mixture was vortexed for approximately 3 min before injected onto the LC/MS/MS system for analysis.
On the day of the assay, the frozen liver and brain samples were thawed unassisted at room temperature. An about 200 mg weighed sample of each thawed tissue was placed into a plastic tube with water (0.6 mL) to facilitate homogenization. Tissue processing was conducted using a homogenizer for approximately 1 min, 200 μl homogenate was transferred into a fresh Eppendorf tube. To each tube, 50 μL IS-D was added and mixed. Then 600 μl acetonitrile was added and the sample mixture was vortexed for approximately 3 min. After centrifugation at 10000 rpm for 5 min at 4° C., 400 μL of the upper layer was transferred to a new tube and evaporate the supernatant to dryness at 35° C. Reconstitute the residue with 200 μL of 0.4% formic acid in water (pH6.0), and vortex for 3 min, submit for LC-MS/MS analysis.
Frozen unknown plasma samples were completely thawed at room temperature and vortexed thoroughly. With a pipette, 50 μL of plasma was transferred into a 2.0 mL Eppendorf tube. 50 μL of 0.1N HCl and 800 μL ethyl acetate were added into each sample. The sample mixture was vortexed for approximately 3 min.

[1] = female, SD, rat, in vivo, iv, 1.25 mg/kg, 153 in plasma, IV 1.25 mg/kg, Mean
[2] = female, SD, rat, in vivo, iv, 1.25 mg/kg, 153 in plasma, IV 1.25 mg/kg, rat 1
[3] = female, SD, rat, in vivo, iv, 1.25 mg/kg, 153 in plasma, IV 1.25 mg/kg, rat 2

With `CCCOC(=O)C1C2CCC(O2)C1C(=O)N1CCN(C)CC1` (stereo not drawn) [Compound 153, 3-(4-Methylpiperazine-1-carbonyl)-7-oxa-bicyclo[2,2,1]heptane-2-carboxylic acid propyl ester] the F (153, PO 1.25 mg/kg vs IV 1.25 mg/kg, Mean) was 55.41%, the “conversion to endothal in the plasma (statement)” value (153 administered to rats) was “converted to endothal” and the Tmax (153 in plasma, IV 1.25 mg/kg, Mean) was 15 min. For the same compound, the Tmax (153 in plasma, IV 1.25 mg/kg, rat 2) was 15 min, the Tmax (153 in plasma, PO 1.25 mg/kg, rat 2) was 30 min and the “AUClast of 153 in brain” value (153 iv 1.25 mg/kg) was 39.4 ng·h/g. For the same compound, the “AUClast of 153 in liver” value (153 iv 1.25 mg/kg) was 500 ng·h/g, the “oral availability of 153 (statement)” value (153 po 1.25 mg/kg) was “orally available” and the AUC (Brain, 1.25 mg/kg IV, Mean) was 39.4 ng·h/mL. The “AUC0-∞” value (Brain, 1.25 mg/kg IV, Mean) was 39.35 ng·h/mL, the Tmax (Brain, 1.25 mg/kg IV, Mean) was 15 min and the AUC (Brain, 1.25 mg/kg IV, rat 1) was 39.2 ng·h/mL. The “AUC0-∞” value (Brain, 1.25 mg/kg IV, rat 1) was 39.2 ng·h/mL, the Tmax (Brain, 1.25 mg/kg IV, rat 1) was 15 min and the AUC (Brain, 1.25 mg/kg IV, rat 2) was 39.5 ng·h/mL. For the same compound, the “AUC0-∞” value (Brain, 1.25 mg/kg IV, rat 2) was 39.5 ng·h/mL, the Tmax (Brain, 1.25 mg/kg IV, rat 2) was 15 min and the AUC (Liver, 1.25 mg/kg IV, Mean) was 500 ng·h/mL. The “AUC0-∞” value (Liver, 1.25 mg/kg IV, Mean) was 500 ng·h/mL, the AUC (Liver, 1.25 mg/kg IV, rat 1) was 547 ng·h/mL and the “AUC0-∞” value (Liver, 1.25 mg/kg IV, rat 1) was 547 ng·h/mL. For the same compound, the Tmax (Liver, 1.25 mg/kg IV, rat 1) was 15 min, the AUC (Liver, 1.25 mg/kg IV, rat 2) was 453 ng·h/mL and the “AUC0-∞” value (Liver, 1.25 mg/kg IV, rat 2) was 453 ng·h/mL. For the same compound, the Tmax (Liver, 1.25 mg/kg IV, rat 2) was 15 min, the “153 plasma concentration (title) / Liver concentration” value (1.25 mg/kg, 6 hr, Rat 1) was “BLQ” and the “153 plasma concentration (title) / Liver concentration” value (1.25 mg/kg, 6 hr, Rat 2) was “BLQ”. The “153 plasma concentration (title) / Liver concentration” value (1.25 mg/kg, 10 hr, Rat 1) was “BLQ”, the Tmax (female, SD, in vivo, 153 in plasma, IV 1.25 mg/kg, rat 1, read-out: Tmax) was 15 min and the Tmax (female, SD, in vivo, 153 in plasma, PO 1.25 mg/kg, rat 1, read-out: Tmax) was 30 min. For the same compound, the AUC(0-inf) [1] was 296 ng·h/mL, the AUC (female, SD, rat, in vivo, iv, 1.25 mg/kg, 153 in plasma, IV 1.25 mg/kg, Mean, read-out: AUC) was 295 ng·h/mL and the Cmax (female, SD, rat, in vivo, iv, 1.25 mg/kg, 153 in plasma, IV 1.25 mg/kg, Mean, read-out: Cmax) was 557 ng/mL. It also gave an MRT last [1] of 39.4 min, a half-life (female, SD, rat, in vivo, iv, 1.25 mg/kg, 153 in plasma, IV 1.25 mg/kg, Mean, read-out: T1/2 (converted)) of 55.3 min and an AUC(0-inf) [2] of 303 ng·h/mL. For the same compound, the AUC (female, SD, rat, in vivo, iv, 1.25 mg/kg, 153 in plasma, IV 1.25 mg/kg, rat 1, read-out: AUC) was 303 ng·h/mL, the Cmax (female, SD, rat, in vivo, iv, 1.25 mg/kg, 153 in plasma, IV 1.25 mg/kg, rat 1, read-out: Cmax) was 563 ng/mL and the MRT last [2] was 40 min. For the same compound, the half-life (female, SD, rat, in vivo, iv, 1.25 mg/kg, 153 in plasma, IV 1.25 mg/kg, rat 1, read-out: T1/2 (converted)) was 54.4 min, the AUC(0-inf) [3] was 288 ng·h/mL and the AUC (female, SD, rat, in vivo, iv, 1.25 mg/kg, 153 in plasma, IV 1.25 mg/kg, rat 2, read-out: AUC) was 288 ng·h/mL. It also gave a Cmax (female, SD, rat, in vivo, iv, 1.25 mg/kg, 153 in plasma, IV 1.25 mg/kg, rat 2, read-out: Cmax) of 550 ng/mL, an MRT last [3] of 38.8 min and a half-life (female, SD, rat, in vivo, iv, 1.25 mg/kg, 153 in plasma, IV 1.25 mg/kg, rat 2, read-out: T1/2 (converted)) of 56 min. It also gave a half-life (female, SD, rat, in vivo, iv, 1.25 mg/kg, 153 iv 1.25 mg/kg, read-out: T1/2 of 153 in brain (converted)) of 35.8 min, a half-life (female, SD, rat, in vivo, iv, 1.25 mg/kg, 153 iv 1.25 mg/kg, read-out: T1/2 of 153 in liver (converted)) of 37.6 min and a half-life (female, SD, rat, in vivo, iv, 1.25 mg/kg, 153 iv 1.25 mg/kg, read-out: T1/2 of 153 in plasma (converted)) of 55.3 min. It also gave a Cmax (female, SD, rat, in vivo, iv, 1.25 mg/kg, 153 iv 1.25 mg/kg, read-out: mean Cmax of 153 in brain) of 42.7 ng/g, a Cmax (female, SD, rat, in vivo, iv, 1.25 mg/kg, 153 iv 1.25 mg/kg, read-out: mean Cmax of 153 in liver) of 762 ng/g and a Cmax (female, SD, rat, in vivo, iv, 1.25 mg/kg, 153 iv 1.25 mg/kg, read-out: mean Cmax of 153 in plasma) of 557 ng/mL. The Cmax (female, SD, rat, in vivo, iv, 1.25 mg/kg, Liver, 1.25 mg/kg IV, rat 1, read-out: Cmax) was 872 ng/g, the MRT last (female, SD, rat, in vivo, iv, 1.25 mg/kg, Liver, 1.25 mg/kg IV, rat 1) was 44.7 min and the half-life (female, SD, rat, in vivo, iv, 1.25 mg/kg, Liver, 1.25 mg/kg IV, rat 1, read-out: T1/2 (converted)) was 36.5 min. The Cmax (female, SD, rat, in vivo, iv, 1.25 mg/kg, Liver, 1.25 mg/kg IV, rat 2, read-out: Cmax) was 652 ng/g, the MRT last (female, SD, rat, in vivo, iv, 1.25 mg/kg, Liver, 1.25 mg/kg IV, rat 2) was 49.5 min and the concentration at 0.25 h (female, SD, rat, in vivo, iv, 1.25 mg/kg, iv 1.25 mg/kg, Mean, read-out: 153 brain concentration) was 42.7 ng/g. For the same compound, the concentration at 0.25 h (female, SD, rat, in vivo, iv, 1.25 mg/kg, iv 1.25 mg/kg, Mean, read-out: 153 liver concentration) was 762 ng/g, the concentration at 0.25 h (female, SD, rat, in vivo, iv, 1.25 mg/kg, iv 1.25 mg/kg, Mean, read-out: 153 plasma concentration) was 557 ng/mL and the concentration at 0.25 h (female, SD, rat, in vivo, iv, 1.25 mg/kg, iv 1.25 mg/kg, Rat 1, read-out: 153 brain concentration) was 45 ng/g. The concentration at 0.25 h (female, SD, rat, in vivo, iv, 1.25 mg/kg, iv 1.25 mg/kg, Rat 1, read-out: 153 liver concentration) was 872 ng/g, the concentration at 0.25 h (female, SD, rat, in vivo, iv, 1.25 mg/kg, iv 1.25 mg/kg, Rat 1, read-out: 153 plasma concentration) was 563 ng/mL and the concentration at 0.25 h (female, SD, rat, in vivo, iv, 1.25 mg/kg, iv 1.25 mg/kg, Rat 2, read-out: 153 brain concentration) was 40.3 ng/g. It also gave a concentration at 0.25 h (female, SD, rat, in vivo, iv, 1.25 mg/kg, iv 1.25 mg/kg, Rat 2, read-out: 153 liver concentration) of 652 ng/g, a concentration at 0.25 h (female, SD, rat, in vivo, iv, 1.25 mg/kg, iv 1.25 mg/kg, Rat 2, read-out: 153 plasma concentration) of 550 ng/mL and a concentration at 1 h (female, SD, rat, in vivo, iv, 1.25 mg/kg, iv 1.25 mg/kg, 1 hr, Mean, read-out: 153 brain concentration) of 14.1 ng/g.
